Results taken from PubChem BioAssay AID330 (DTP/NCI, 2004).
Several values for one entry are separate records, joined by “and”; a condition that tells them apart may be missing. Identical values can stand only once. Toxic doses and inconclusive results are not listed.

Test system: P388 leukemia ip, CD2F1 mice, survival T/C
Experiment: NCI In Vivo Anticancer Drug Screen. Data for tumor model P388 Leukemia (intraperitoneal) in CD2F1 (CDF1) mice
Settings: endpoint: median survival time, higher = longer survival
In short: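 Mice carrying the transplanted tumor received test compound or vehicle. Survival was recorded in each group, and the value is the treated-group measurement divided by that of the vehicle-treated control group.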

[1] = dose: 50.0 mg/kg/injection, schedule: Q01DX005 (ip), vehicle: Klucel (hydroxypropylcellulose) (HPC)
[2] = dose: 100.0 mg/kg/injection, schedule: Q01DX005 (ip), vehicle: Klucel (hydroxypropylcellulose) (HPC)
[3] = dose: 200.0 mg/kg/injection, schedule: Q01DX005 (ip), vehicle: Klucel (hydroxypropylcellulose) (HPC)
[4] = dose: 100.0 mg/kg/injection, schedule: Q04DX003 (ip), vehicle: saline with Tween-80
[5] = dose: 60.0 mg/kg/injection, schedule: Q01DX005 (ip), vehicle: saline with Tween-80
[6] = dose: 120.0 mg/kg/injection, schedule: Q01DX005 (ip), vehicle: saline with Tween-80
[7] = dose: 50.0 mg/kg/injection, schedule: Q01DX009 (ip), vehicle: Klucel (hydroxypropylcellulose) (HPC)
[8] = dose: 100.0 mg/kg/injection, schedule: Q01DX009 (ip), vehicle: Klucel (hydroxypropylcellulose) (HPC)
[9] = dose: 50.0 mg/kg/injection, schedule: Q01DX005 (ip), vehicle: saline with Tween-80
[10] = dose: 240.0 mg/kg/injection, schedule: Q01DX005 (ip), vehicle: saline with Tween-80
[11] = dose: 100.0 mg/kg/injection, schedule: Q01DX005 (ip), vehicle: saline with Tween-80
[12] = dose: 200.0 mg/kg/injection, schedule: Q01DX005 (ip), vehicle: saline with Tween-80

For `CC(C)C[CH2][Pb]([Cl])([CH2]CC(C)C)[CH2]CC(C)C`, the T/C (dose: 0.06 mg/kg/injection, schedule: Q01DX009 (ip), vehicle: saline + alcohol) was 103 % of control, the T/C (dose: 0.13 mg/kg/injection, schedule: Q01DX009 (ip), vehicle: saline + alcohol) was 108 % of control and the T/C (dose: 0.25 mg/kg/injection, schedule: Q01DX009 (ip), vehicle: saline + alcohol) was 105 % of control. The T/C (dose: 0.5 mg/kg/injection, schedule: Q01DX009 (ip), vehicle: saline + alcohol) was 119 % of control, the T/C (dose: 1.0 mg/kg/injection, schedule: Q01DX009 (ip), vehicle: saline + alcohol) was 118 % of control and the T/C (dose: 2.0 mg/kg/injection, schedule: Q01DX009 (ip), vehicle: saline) was 111 % of control. The T/C (dose: 4.0 mg/kg/injection, schedule: Q01DX009 (ip), vehicle: saline) was 110 % of control and the T/C (dose: 8.0 mg/kg/injection, schedule: Q01DX009 (ip), vehicle: saline) was 100 % of control.
For `CCOC(=O)C(C)C(=O)C(C)N1C(=O)c2ccccc2C1=O` (stereo not given), the T/C (dose: 25.0 mg/kg/injection, schedule: Q04DX003 (ip), vehicle: other) was 102 % of control, the T/C (dose: 50.0 mg/kg/injection, schedule: Q04DX003 (ip), vehicle: other) was 96 % of control and the T/C (dose: 100.0 mg/kg/injection, schedule: Q04DX003 (ip), vehicle: other) was 93 % of control. For the same compound, the T/C (dose: 200.0 mg/kg/injection, schedule: Q04DX003 (ip), vehicle: other) was 93 % of control and the T/C (dose: 400.0 mg/kg/injection, schedule: Q04DX003 (ip), vehicle: other) was 91 % of control.
For `COc1ccc2c(c1)OC(C)(C)C(c1ccccc1)=C2c1ccc(OCCBr)c([N+](=O)[O-])c1`, the T/C [1] was 107 % of control, the T/C [2] was 98 % of control and the T/C [3] was 101 % of control.
With `CCC1CN2CCc3cc(OC)c(OC)cc3C2CC1CC1c2cc(OC)c(OC)cc2CCN1C(=O)C(Cc1c[nH]c2ccccc12)NC(=O)OC(C)(C)C` (stereo not given) the T/C (dose: 25.0 mg/kg/injection, schedule: Q01DX009 (ip), vehicle: saline with Tween-80) was 105 % of control, the T/C (dose: 50.0 mg/kg/injection, schedule: Q01DX009 (ip), vehicle: saline with Tween-80) was 115 % of control and the T/C (dose: 66.0 mg/kg/injection, schedule: Q01DX009 (ip), vehicle: saline with Tween-80) was 104 % of control. For the same compound, the T/C [4] was 104 % of control.
In the case of `CC(C)C1=CC23CCC4C(C)(C(=O)O)CCCC4(C)C2CC1C1C(=O)N(CCCN(C)C)C(=O)C13` (stereo not given), the T/C [5] is reported as 104 % of control and the T/C [6] is reported as 99 % of control.
`CCCCCC(CN(C)C)/C(CC(NO)c1ccccc1)=N\O` (stereo not given) was tested, and the T/C [7] was 106 % of control and the T/C [8] was 106 % of control.
For `N#Cc1c(-c2ccc(Cl)cc2)c(-c2ccc(Cl)cc2)nn(CCOC(=O)CCC(=O)O)c1=O`, the T/C (dose: 3.13 mg/kg/injection, schedule: Q01DX005 (ip), vehicle: distilled water + Tween-80) was 100 % of control, the T/C (dose: 6.25 mg/kg/injection, schedule: Q01DX005 (ip), vehicle: distilled water + Tween-80) was 100 % of control and the T/C (dose: 12.5 mg/kg/injection, schedule: Q01DX005 (ip), vehicle: distilled water + Tween-80) was 105 % of control. For the same compound, the T/C (dose: 12.5 mg/kg/injection, schedule: Q01DX005 (ip), vehicle: saline) was 104 % of control, the T/C (dose: 12.5 mg/kg/injection, schedule: Q01DX005 (ip), vehicle: sodium bicarbonate) was 103 % of control and the T/C (dose: 12.5 mg/kg/injection, schedule: Q04DX002 (ip), vehicle: distilled water + Tween-80) was 106 % of control. For the same compound, the T/C (dose: 25.0 mg/kg/injection, schedule: Q01DX005 (ip), vehicle: distilled water + Tween-80) was 114 % of control and 117 % of control, the T/C (dose: 25.0 mg/kg/injection, schedule: Q01DX005 (ip), vehicle: saline) was 112 % of control and the T/C (dose: 25.0 mg/kg/injection, schedule: Q01DX005 (ip), vehicle: sodium bicarbonate) was 112 % of control. For the same compound, the T/C (dose: 25.0 mg/kg/injection, schedule: Q04DX002 (ip), vehicle: distilled water + Tween-80) was 105 % of control and 113 % of control, the T/C (dose: 50.0 mg/kg/injection, schedule: Q01DX005 (ip), vehicle: distilled water + Tween-80) was 172 % of control and 184 % of control and the T/C (dose: 100.0 mg/kg/injection, schedule: Q01DX005 (ip), vehicle: saline) was 180 % of control. For the same compound, the T/C (dose: 100.0 mg/kg/injection, schedule: Q01DX005 (ip), vehicle: sodium bicarbonate) was 202 % of control and the T/C (dose: 100.0 mg/kg/injection, schedule: Q04DX002 (ip), vehicle: distilled water + Tween-80) was 115 % of control and 92 % of control.
`COC(=O)[C@@]12OC[C@]34C([C@@H](O)C1O)[C@@]1(C)CC(=O)C(OS(=O)(=O)C(F)(F)F)=C(C)C1C[C@H]3OC(=O)[C@H](OC(=O)/C=C(\C)C(C)C)[C@H]42` (stereo not given in full) was tested, and the T/C (dose: 0.25 mg/kg/injection, schedule: Q01DX005 (ip), vehicle: DMSO) was 101 % of control, the T/C (dose: 0.5 mg/kg/injection, schedule: Q01DX005 (ip), vehicle: DMSO) was 108 % of control and the T/C (dose: 1.0 mg/kg/injection, schedule: Q01DX005 (ip), vehicle: DMSO) was 109 % of control and 97 % of control. For the same compound, the T/C (dose: 2.0 mg/kg/injection, schedule: Q01DX005 (ip), vehicle: DMSO) was 107 % of control and 118 % of control, the T/C (dose: 4.0 mg/kg/injection, schedule: Q01DX005 (ip), vehicle: DMSO) was 107 % of control and the T/C (dose: 8.0 mg/kg/injection, schedule: Q01DX005 (ip), vehicle: DMSO) was 115 % of control.
In the case of `COc1cccc2c1C(=O)c1c(O)c3c(c(O)c1C2=O)CC(O)(C(=O)CO)CC3OC1CC(NCC2(O)OCC(O)C(O)C2O)C(O)C(C)O1` (stereo not given), the T/C (dose: 14.5 mg/kg/injection, schedule: Q04DX003 (ip), vehicle: water) is reported as 179 % of control, the T/C (dose: 29.0 mg/kg/injection, schedule: Q04DX003 (ip), vehicle: water) is reported as 239 % of control and the T/C (dose: 58.0 mg/kg/injection, schedule: Q04DX003 (ip), vehicle: water) is reported as 116 % of control.
`Nc1cccc2c1C(=O)c1ccc(Cl)cc1C2=O` was tested, and the T/C [1] was 99 % of control, the T/C [2] was 94 % of control and the T/C [3] was 99 % of control.
In the case of `COc1ccccc1N1C(=O)CSC1=Nc1ccccc1`, the T/C (dose: 50.0 mg/kg/injection, schedule: Q01DX009 (ip), vehicle: saline) is reported as 98 % of control, the T/C (dose: 100.0 mg/kg/injection, schedule: Q01DX009 (ip), vehicle: saline) is reported as 96 % of control and the T/C (dose: 200.0 mg/kg/injection, schedule: Q01DX009 (ip), vehicle: saline) is reported as 100 % of control.
For `N#CCSc1nc(N)nc2nc[nH]c12`, the T/C (dose: 50.0 mg/kg/injection, schedule: Q01DX009 (ip), vehicle: saline sonified) was 95 % of control, the T/C (dose: 50.0 mg/kg/injection, schedule: Q04DX003 (ip), vehicle: saline with Tween-80) was 95 % of control and the T/C (dose: 100.0 mg/kg/injection, schedule: Q01DX009 (ip), vehicle: saline sonified) was 100 % of control. For the same compound, the T/C [4] was 100 % of control, the T/C (dose: 200.0 mg/kg/injection, schedule: Q01DX009 (ip), vehicle: saline sonified) was 95 % of control and the T/C (dose: 200.0 mg/kg/injection, schedule: Q04DX003 (ip), vehicle: saline with Tween-80) was 95 % of control.
`CN(C(=S=O)c1ccccc1)c1ccc([N+](=O)[O-])cc1` was tested, and the T/C (dose: 50.0 mg/kg/injection, schedule: Q04DX002 (ip), vehicle: saline) was 95 % of control, the T/C (dose: 100.0 mg/kg/injection, schedule: Q04DX002 (ip), vehicle: saline) was 95 % of control and the T/C (dose: 200.0 mg/kg/injection, schedule: Q04DX002 (ip), vehicle: saline) was 96 % of control.
`O=C1C=CC(=O)C2=C1CCOC2c1ccccc1` (stereo not given) was tested, and the T/C [9] was 91 % of control.
In the case of `CCOC(=O)C(=CNc1ccc2n[nH]nc2c1)C(=O)OCC`, the T/C [7] is reported as 100 % of control and the T/C [8] is reported as 108 % of control.
With `O=C(CCc1nc2ccccc2[nH]1)C1Cc2ccccc2C1=O` (stereo not given) the T/C [5] was 103 % of control, the T/C [6] was 104 % of control and the T/C [10] was 103 % of control.
`COC(=O)N1C=CC2ON=C(OC)C2C1` (stereo not given) was tested, and the T/C [5] was 95 % of control, the T/C [6] was 100 % of control and the T/C [10] was 94 % of control.
In the case of `COc1ccc(NC(=O)Oc2ccc3c(C)cc(=O)oc3c2)c(OC)c1`, the T/C (dose: 100.0 mg/kg/injection, schedule: Q01DX009 (ip), vehicle: saline with Tween-80) is reported as 122 % of control, the T/C (dose: 200.0 mg/kg/injection, schedule: Q01DX009 (ip), vehicle: saline with Tween-80) is reported as 121 % of control and the T/C (dose: 400.0 mg/kg/injection, schedule: Q01DX009 (ip), vehicle: saline with Tween-80) is reported as 91 % of control.
In the case of `CC1CC(C)/C(=N/NC(N)=S)C(C(O)CC2CC(=O)NC(=O)C2)C1` (stereo not given), the T/C [9] is reported as 109 % of control, the T/C [11] is reported as 105 % of control and the T/C [12] is reported as 104 % of control.
For `C[Si](C)(C)O[C@@H]1CCCC1NCC#N` (stereo not given in full), the T/C [9] was 101 % of control, the T/C [11] was 101 % of control and the T/C [12] was 92 % of control.
